System: mastitis
Experiment: Teat dip field test, Dairy 3 (spray, raw milk dairy, 6 week test period)
Format: in vivo
Conditions: Dairy 3, pre and post milking; chlorine dioxide on cows without previous mastitis (Pens 0, 1, 3, 5), Example 1 on cows with previous mastitis (Pen 7)
Excerpt: Dairy 3 produces raw milk and uses a spray method for applying teat dips. A key factor to note is that Example 1 was used on cows that previously had mastitis. The results of Table 5 compare using chlorine dioxide on cows that had not had mastitis, to using Example 1 on cows that were more susceptible due to previous bouts with mastitis. Once a cow developed mastitis in Dairy 3, it is not used in the production of raw milk. […] Pen No's. 0, 1, 3 and 5 used chlorine dioxide for both pre and post milking. Pen No. 7 used Example 1 for the 6 week test period. In all pens, the cows were retained in pens with saw dust in between milking cycles to reduce the chance of spreading infectious disease.
The number of cows that were […] using the composition of Example 1, for both pre and post milking, during the 6 week test period was 5.3% as shown in Table 5. Table 6 defines the number of cows in each respective pen of Table 5.

## [O][Cl+][O-] [chlorine dioxide]
  cows that developed mastitis during the 6 week test period: 5.7%
